Assay results: paper PMC10671693, “Design, Synthesis, and Antitumor Activity Evaluation of Proteolysis-Targeting Chimeras as Degraders of Extracellular Signal-Regulated Kinases 1/2” (International Journal of Molecular Sciences, 2023)
“Also recorded” adds a separate entry of the source.

Experiments:
ERK1/2 = assay: Western blot ERK1/2 protein degradation assay in A375 cells; assay type: cell-based, human; conditions: 48 h; for ERK1/2 degradative activity (in words): Western blot; for DC50: Western blotting and grayscale quantification; for DCmax: Western blot with grayscale quantification
Method: (§1) A375, HCT116, Calu-6, and B16-F10 cells were purchased from American Type Culture Collection (ATCC) and cultured in DMEM high glucose media (SH30022.01, Cytiva, Shanghai, China) supplemented with 10% fetal bovine serum (10099-144, Gibco, Carlsbad, CA, USA) and 1% penicillin/streptomycin (Solarbio, Beijing, China) in an incubator at 37 °C with 5% CO2.
Cells were cultured under the indicated conditions as described in “Cell culture”. Cells were seeded in 6-well plates (3516, Corning, New York, NY, USA). Compounds were dissolved in DMSO for storage (10 mM). Following compound treatment, cells were washed with PBS, scraped from the plate, and lysed using cell lysis buffer (Applygen, Beijing, China). After the protein in the cell lysate was quantified via the BCA quantification method, the samples were placed in a metal bath at 100 °C and heated for 5 min. Cell lysates were separated using a 10% SDS–PAGE gel and transferred to PVDF membranes (Merck Millipore, Burlington, MA, USA). The PVDF membrane was blocked with 5% nonfat dry milk in TBST for one hour. The PVDF membrane was transferred to the antibody diluent and incubated overnight at 4 °C. PVDF membranes were washed three times with TBST for 5 min each and then incubated with the appropriate HRP-conjugated secondary antibody for 1 h at room temperature. After washing three more times with TBST, the PVDF membrane was stained with a hypersensitive ECL chemiluminescence reagent (Biodragon, Beijing, China) and then imaged with Tanon 5200. Grayscale quantitative analysis was performed using ImageJ software. Statistical analysis was performed using GraphPad Prism 8. DC50 and Dmax values were fitted using a four-parameter [inhibitor] versus response and reported directly from the Prism output. Mean ± SD and unpaired t tests were performed in GraphPad Prism.

A375 cells = assay: Cell proliferation (CCK8) assay, A375; assay type: cell-based; conditions: Homo sapiens, A-375, A375, 72 h, read-out: IC50 (growth inhibition, cytotoxicity)
Method: as §1
(§2) A 96-well plate (3599, Corning, New York, NY, USA) was inoculated with 100 μL of complete medium containing 10,000 cells, and the experimental, control, and blank groups were established. Three parallel wells were used per concentration. After 10 h, the media from the experimental and control groups were replaced with a compound containing the indicated concentration of the complete medium. Cells were incubated for 72 h before 10 μL of CCK8 reagent (CA1210, Solarbio, Beijing, China) was added to each well and incubated for 1 h. Using a microplate reader (Tecan, Mannendorf, Switzerland), the absorbance at 450 nm was measured. The IC50 values were determined using GraphPad Prism 8 and nonlinear regression curve fitting.

HCT116 cells = assay: Cell proliferation (CCK8) assay, HCT116; assay type: cell-based, human; conditions: Homo sapiens, HCT-116, 72 h, HCT116, 72 h, read-out: IC50 (growth inhibition, cytotoxicity)
Method: as §1, §2

Calu-6 cells = assay: Cell proliferation (CCK8) assay, Calu-6; assay type: cell-based; conditions: Homo sapiens, Calu-6, 72 h, read-out: IC50 (growth inhibition, cytotoxicity)
Method: as §1, §2

Q: Which results are given for `Cc1cccc(CN2C(=O)c3cc(-c4nc(Nc5ccnc(C#CCCN6CCN(CCCCCCCCNc7cccc8c7C(=O)N(C7CCC(=O)NC7=O)C8=O)CC6)c5)ncc4C)cn3C[C@H]2C)n1` (stereo partly drawn) [Compound B1-10P]?
A: ERK1/2 degradative activity (in words) (ERK1/2): slightly increased DC50; also recorded: effective ERK1/2 degraders; DC50 (ERK1/2): 0.616 ± 0.389 µM; IC50 (A375 cells): > 30 µM; IC50 (HCT116 cells): 2.2 ± 0.6 µM; IC50 (Calu-6 cells): > 30 µM

Q: Which IC50 (A375 cells) does the source give for `CNCCC#Cc1cc(Nc2ncc(C)c(-c3cc4n(c3)C[C@@H](C)N(Cc3cccc(C)n3)C4=O)n2)ccn1` [B-J] here?
A: Its IC50 is 16.8 ± 3 µM.

Q: And the IC50 (HCT116 cells)?
A: The IC50 was 17.8 ± 3.9 µM.

Q: And the IC50 (Calu-6 cells)?
A: Its IC50 is 6.5 ± 1.3 µM.

Q: With `Cc1cccc(CN2C(=O)c3cc(-c4nc(Nc5ccnc(C#CCCNC(=O)CCCCCCCCCNc6cccc7c6C(=O)N(C6CCC(=O)NC6=O)C7=O)c5)ncc4C)cn3C[C@H]2C)n1` (stereo partly drawn) [Compound B1-10] as the compound, how does the “ERK1/2 degradative activity (in words)” value (ERK1/2) read?
A: The value was “effective ERK1/2 degraders”.

Q: And the DCmax (ERK1/2)?
A: The DCmax was “exceeding 65%”.

Q: What about the DC50 (ERK1/2) of the same compound?
A: The DC50 was 0.333 ± 0.169 µM.

Q: And the IC50 (A375 cells)?
A: Its IC50 is greater than 30 µM.

Q: What about the IC50 (HCT116 cells) of the same compound?
A: Its IC50 is greater than 30 µM.

Q: And the IC50 (Calu-6 cells)?
A: The IC50 was greater than 30 µM.

Q: Which results are given for `Cc1cccc(CN2C(=O)c3cc(-c4nc(Nc5ccnc(C#CCCNC(=O)CCCCCCCCC(=O)N[C@H](C(=O)N6C[C@H](O)C[C@H]6C(=O)N[C@@H](C)c6ccc(-c7scnc7C)cc6)C(C)(C)C)c5)ncc4C)cn3C[C@H]2C)n1` [Compound B2-10]?
A: ERK1/2 degradative activity (in words) (ERK1/2): effective ERK1/2 degraders; DC50 (ERK1/2): 0.699 ± 0.361 µM; melting point: 144 to 145 °C

Q: Which “ERK1/2 degradative activity (in words)” value (ERK1/2) does the source give for `Cc1cccc(CN2C(=O)c3cc(-c4nc(Nc5ccnc(C#CCCNC(=O)CCCCCCCCCCCCC(=O)N[C@H](C(=O)N6C[C@H](O)C[C@H]6C(=O)N[C@@H](C)c6ccc(-c7scnc7C)cc6)C(C)(C)C)c5)ncc4C)cn3C[C@H]2C)n1` [Compound B2-14] here?
A: The value was “effective ERK1/2 degraders”.

Q: And the DCmax (ERK1/2)?
A: The DCmax was “exceeding 65%”.

Q: What about the DC50 (ERK1/2) of the same compound?
A: The DC50 was 0.307 ± 0.191 µM.

Q: And the melting point?
A: Its melting point is 128 to 129 °C.

Q: With `Cc1cccc(CN2C(=O)c3cc(-c4nc(Nc5ccn(CCCCNC(=O)CCCCCCCCCNc6cccc7c6C(=O)N(C6CCC(=O)NC6=O)C7=O)n5)ncc4C)cn3C[C@H]2C)n1` (stereo partly drawn) [Compound B1-10BZ] as the compound, how does the “ERK1/2 degradative activity (in words)” value (ERK1/2) read?
A: The value was “degradative activity disappeared; also recorded: no degradative activity was observed”.

Q: Which “ERK1/2 degradative activity (in words)” value (ERK1/2) does the source give for `Cc1cccc(CN2C(=O)c3cc(-c4nc(Nc5ccnc(C#CCCNC(=O)CCCCCCCCCCC(=O)N[C@H](C(=O)N6C[C@H](O)C[C@H]6C(=O)N[C@@H](C)c6ccc(-c7scnc7C)cc6)C(C)(C)C)c5)ncc4C)cn3C[C@H]2C)n1` [Compound B2-12] here?
A: The value was “effective ERK1/2 degraders”.

Q: And the DCmax (ERK1/2)?
A: Its DCmax is “exceeding 65%”.

Q: What about the DC50 (ERK1/2) of the same compound?
A: Its DC50 is 0.383 ± 0.208 µM.

Q: And the IC50 (A375 cells)?
A: Its IC50 is 7.5 ± 6.1 µM.

Q: What about the IC50 (HCT116 cells) of the same compound?
A: Its IC50 is 11.7 ± 10.5 µM.

Q: What about the IC50 (Calu-6 cells) of the same compound?
A: Its IC50 is greater than 30 µM.

Q: And the melting point?
A: The melting point was 143 to 144 °C.

Q: With `Cc1cccc(CN2C(=O)c3cc(-c4nc(Nc5cccc(C#CCCNC(=O)CCCCCCCCCNc6cccc7c6C(=O)N(C6CCC(=O)NC6=O)C7=O)c5)ncc4C)cn3C[C@H]2C)n1` (stereo partly drawn) [Compound B1-10B] as the compound, how does the “ERK1/2 degradative activity (in words)” value (ERK1/2) read?
A: The value was “no degradative activity was observed”.

Q: With `Cc1cccc(CN2C(=O)c3cc(-c4nc(Nc5ccnc(NCCCNC(=O)CCCCCCCCCNc6cccc7c6C(=O)N(C6CCC(=O)NC6=O)C7=O)c5)ncc4C)cn3C[C@H]2C)n1` (stereo partly drawn) [Compound B1-10N] as the compound, how does the “ERK1/2 degradative activity (in words)” value (ERK1/2) read?
A: Its value is “degradative activity disappeared”.

Q: And the melting point?
A: The melting point was 110 to 111 °C.

Q: For `Cc1cccc(CN2C(=O)c3cc(-c4nc(Nc5ccnc(C#CCCN(C)CCCCCCCCCCCC(=O)N[C@H](C(=O)N6C[C@H](O)C[C@H]6C(=O)N[C@@H](C)c6ccc(-c7scnc7C)cc6)C(C)(C)C)c5)ncc4C)cn3C[C@H]2C)n1` [Compound B2-12J], which “ERK1/2 degradative activity (in words)” value (ERK1/2) is on record?
A: The value was “lost its degradative activity”.

Q: Which “ERK1/2 degradative activity (in words)” value (ERK1/2) does the source give for `Cc1cccc(CN2C(=O)c3cc(-c4nc(Nc5ccnc(C#CCCN6CCN(CCCCCCCCCC(=O)N[C@H](C(=O)N7C[C@H](O)C[C@H]7C(=O)N[C@@H](C)c7ccc(-c8scnc8C)cc7)C(C)(C)C)CC6)c5)ncc4C)cn3C[C@H]2C)n1` [Compound B2-12P] here?
A: Its value is “significantly increased DC50 value”.

Q: What about the DC50 (ERK1/2) of the same compound?
A: Its DC50 is 3.8 ± 1.82 µM.

Q: And the melting point?
A: Its melting point is 145 to 146 °C.
